# Legend:
# tyrosinase [1] = assay: Tyrosinase inhibitory activity using L-DOPA; type: biochemical; details: substrate L-DOPA, 25° C., 5 minutes, 475 nm
# Procedure: Tyrosinase inhibitory activity was confirmed using L-DOPA.
# • Tyrosinase solution: Tyrosinase was dissolved in 0.1M PBS (Phosphate buffered saline) buffer to prepare a solution having a concentration of 110 U/ml. • Substrate: L-DOPA was dissolved in 0.1M PBS buffer to be in the concentration of 5 mM. • Sample Usage: Diluted with distilled water to a corresponding concentration and used. • Negative control: Distilled water was added instead of the sample.
# Syzygium formosum extract (Example 1, Example 2, and Comparative Examples 1 to 7), 30 μl of negative control (control), 30 μl of positive control (positive control), 70 μl of 0.1M PBS buffer, and 30 μl of substrate were added. Then, 20 μl of tyrosinase was added thereto, and the reaction was performed at a temperature of 25° C. for 5 minutes. After completion of the reaction, absorbance was measured at 475 nm. The tyrosinase inhibitory activity (%) was calculated using Equation 1 by comparing the absorbance of the test group with that of the control group.
# B16F10 cell line = assay: Melanin production inhibitory activity in B16F10 cells; type: cell-based, mice; details: extract 0.1 mg/ml, 72 hours, 400 nm
# Procedure: The cell line used in the test was B16F10 cell line (Korean Cell Line Bank, Korea), which is a malignant melanoma cell in mice. The cryopreserved cell line was cultured in a culture dish, and after cell line stabilization was confirmed while repeating the subculture twice to three times in the cycle of 2 to 3 days after the first cell culture, cells were cultured in a 48-well plate by the number of cells of 1×10^5/well. Then, the test was prepared by incubating for 24 hours. […] 300 μl of the medium containing each of the sample, the negative control group, and the positive control group was added to a 48-well plate on which cell had been cultured in advance, and cell were cultured for 72 hours at 37° C. under 5% CO2 while the medium was exchanged every day. Thereafter, the medium was removed by washing each well with PBS, and then the cells were treated with 200 μl of 1N NaOH. Thereafter, absorbance was measured at 400 nm using a SpectraMax M2 (Molecular devices, USA). The degree of inhibition on the production of melanin was calculated by comparing the absorbance of the test group with that of the control group treated with the negative control group by using Equation 2. [formula]
# tyrosinase [2] = assay: Tyrosinase inhibitory activity using L-tyrosine; type: biochemical; details: substrate L-tyrosine, sample 0.5 mg/ml, 25° C., 15 minutes, 475 nm
# Procedure: The inhibitory activity of tyrosinase, which is an enzyme that plays an important role in the melanin synthesis process, was confirmed using the Syzygium formosum extract.
# 500 μl of 1 mM L-tyrosine, 900 μl of 0.1 M phosphate buffer (pH 6.8), and 100 μl of 0.5 mg/ml Syzygium formosum extract dissolved in 10% DMSO (Example 1, Example 2, and Comparative Examples 1 to 7) were mixed, and then 100 μl of tyrosinase (53.7 U/ml) was added thereto and reacted at a temperature of 25° C. for 15 minutes. At this time, DMSO was used as a control group, and 0.5 mg/ml arbutin was used as a positive control group.
# The absorbance of the reaction solution was measured at 475 nm for 15 minutes at time intervals of 30 seconds, and then, the tyrosinase inhibitory activity (%) was calculated using Equation 1.
smiles,measurement,setting,value
"OC[C@H]1O[C@@H](Oc2ccc(O)cc2)[C@H](O)[C@@H](O)[C@@H]1O [Arbutin, arbutin]",Inhibitory activity (%),tyrosinase [1],18.6%
same,Inhibitory activity (%),B16F10 cell line,21.1%
same,Inhibitory activity (%),tyrosinase [2],49.1%

# Source: patent US20250195403A1, “SKIN WHITENING, ANTI-BACTERIAL OR ANTI-ATOPIC COMPOSITION, CONTAINING SYZYGIUM FORMOSUM EXTRACT AS ACTIVE INGREDIENT” (CARBOEXPERT INC., priority 2018, published 2025)
